Measurements from patent US7189701B1, “Tetrapeptide stimulating functional activity of neurons pharmacological agent based thereon and method of use thereof” (Sankt-Petersburgskaya Obschestvennaya Organizatsiya …, priority 1999, dated 2007).
Residues, ends and D or L forms follow the SMILES beside them.

Legend:
Type in all cases: in vivo
[1] = system: white unbred rats; assay: Subacute toxicity, 90 days intramuscular; details: intramuscular daily for 90 days, 1 μg/kg, 0.3 mg/kg, 3 mg/kg
Method: Subacute toxicity of L-Ala-L-Glu-L-Asp-L-Pro (SEQ ID NO:1) tetrapeptide was studied on 60 white unbred rats weighing 150 to 250 g. The experimental animals were administered the preparation intramuscularly once a day, daily for 90 days in doses 1 μg/kg, 0.3 mg/kg, 3 mg/kg in 0.5 ml of saline. The control animals were administered the similar amount of saline.
Within the entire period of study the animals were under daily supervision. Animals' behaviour, food and water consumption, the state of their hair integument and mucous membranes were registered. The animals were weighed once a week. Prior to and on the 30th, 60th and 90th days of the drug administration, the morphologic composition and properties of the peripheral blood in the animals were examined. Upon the study completion, biochemical and coagulologic blood indices were explored.

[2] = system: rats with severe craniocerebral compression; assay: Acute severe craniocerebral injury model (CRAA learning, rotating pivot)
Method: Effect of L-Ala-L-Glu-L-Asp-L-Pro tetrapeptide on repair processes in the brain was assessed on the model of acute severe craniocerebral injury. Dynamics of the CNS functional restoration was defined by the tests on the coordination of movements and muscular tonus of the animals as well as on their abilities for learning and reproduction of conditioned reflex skills.
Severe craniocerebral compression in the rats was caused by a falling lead weight. In 1, 12, 48 and 96 hours the experimental animals were intramuscularly injected with L-Ala-L-Glu-L-Asp-L-Pro tetrapeptide. Animals in the 2nd group received Cerebrolysin.
Abilities for learning and skill reproduction were estimated by the test on the conditioned reflex of active avoidance (CRAA). To estimate the muscular tonus and coordination of movements the rats were rotated on a pivot at an increasing speed. Simultaneously, the retention time was measured.

[3] = system: intact white mice; assay: Conditioned reflex of passive avoidance (CRPA) in intact mice; details: for Trained animals (%): i.p. 60 min. before the training
Method: (§1) Nootropic activity of L-Ala-L-Glu-L-Asp-L-Pro tetrapeptide was studied with the application of the conditioned reflex of passive avoidance (CRPA) in the intact animals and under the conditions of amnestic impacts (electroconvulsive treatment and ethanol intoxication).
(§2) The experiments were carried out on male mice weighing 20 to 24 g. For each animal the period of stay in dark and lighted chamber departments was registered during 2 min. before the training. […] The animals were trained by means of applying an electric pain stimulus in the preferred dark department, which lasted until the animal left this department. L-Ala-L-Glu-L-Asp-L-Pro tetrapeptide was introduced intraperitoneally 60 min. before the training. Testing was performed in 2 and 24 hours after the training. The period the animal stayed in the dark and lighted chamber departments and the number of animals not entering the dark department (“educated” animals) were recorded.

[4] = system: mice subject to ethanol-induced amnestic impact; assay: CRPA in mice subject to ethanol-induced amnestic impact
Method: as §1, §2
Ethanol was administered to the mice orally for 13 days in the form of a 10% solution. Training was held twice: on the 14th day of ethanol administration and in 24 hours after the first training. L-Ala-L-Glu-L-Asp-L-Pro tetrapeptide was administered intraperitoneally 30 min. before the training. Testing was performed in 2 and 24 hours after the first and second training sessions.

[5] = 1: in 2 hours after the training
[6] = 2: in 24 hours after the training
[7] = 3: in 2 hours after the repeated training
[8] = 4: in 24 hours after the repeated training

C[C@H](N)C(=O)N[C@@H](CCC(=O)O)C(=O)N[C@@H](CC(=O)O)C(=O)N1CCC[C@H]1C(=O)O [L-Ala-L-Glu-L-Asp-L-Pro tetrapeptide, L-Alanyl-L-Glutamyl-L-Aspartyl-L-Proline] (H-AEDP-OH)
side effects, subacute toxicity [1]: absence of any side effects | time of retention on the rotating pivot relative to control ([2]; 48 hours after the trauma): twice exceeded that in control | number of trainable animals relative to controls (CRAA) ([2]; 96 hours after trauma, intramuscular in 1, 12, 48 and 96 hours): twice as much as that in the controls | indices of learning relative to control ([2]; in 30 days): higher than those in control | Total period of stay in the dark chamber during 2 min. ([3]; 2 hours after training): 11.4 ± 5.2 s | Trained animals (%) ([3]; 2 hours after training): 86% | Total period of stay in the dark chamber during 2 min. ([3]; 24 hours after training): 26.6 ± 5.9 s | Trained animals (%) ([3]; 24 hours after training): 68% | Total period of stay in the dark chamber [4, 5]: 47.8 ± 5.7 s | Trained animals (%) [4, 5]: 13% | Total period of stay in the dark chamber [4, 6]: 41.6 ± 5.8 s | Trained animals (%) [4, 6]: 31% | Total period of stay in the dark chamber [4, 7]: 13.7 ± 5.7 s | Trained animals (%) [4, 7]: 77% | Total period of stay in the dark chamber [4, 8]: 7.6 ± 5.7 s | Trained animals (%) [4, 8]: 86%
